These results are taken from patent publication US20180118756A1, “COMPOSITIONS AND METHODS OF MODULATING SHORT-CHAIN DEHYDROGENASE ACTIVITY” (CASE WESTERN RESERVE UNIVERSITY, priority 2015, published 2018).

What is called IC50 is the concentration at which inhibition is half-maximal.

For the first experiment, the target named is T1, recombinant 15-PGDH (Homo sapiens, UniProt P15428).
T1 sequence (P15428 1-266): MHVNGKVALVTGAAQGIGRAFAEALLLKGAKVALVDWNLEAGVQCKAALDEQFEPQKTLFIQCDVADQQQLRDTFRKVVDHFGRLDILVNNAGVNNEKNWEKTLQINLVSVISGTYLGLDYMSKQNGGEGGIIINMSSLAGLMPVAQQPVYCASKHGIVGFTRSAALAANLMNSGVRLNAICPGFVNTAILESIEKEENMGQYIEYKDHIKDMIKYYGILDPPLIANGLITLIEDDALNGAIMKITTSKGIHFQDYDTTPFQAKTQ
The experiment in a line: IC50 for inhibiting enzymatic activity of recombinant 15-PGDH in an in vitro assay. In kind it is biochemical. The settings on record: Enzyme Inhibitor IC50 (nM) at 5 nM 15-PGDH, recombinant human 15-PGDH at 5 nM, in vitro.
Regarding `CCCC[S+]([O-])c1sc2nc(-c3nccs3)cc(-c3ccc(C(=O)NCCO)cc3)c2c1N` (stereo not drawn) [SW 212831, 4-(3-amino-2-(butylsulfinyl)-6-(thiazol-2-yl)thieno[2,3-b]pyridin-4-yl)-N-(2-hydroxyethyl)benzamide], the IC50 stood at 4 nM. On to `CCCC[S+]([O-])c1sc2nc(-c3nccs3)cc(-c3ccc(COC(=O)NCCN(C)C)cc3)c2c1N` (stereo not drawn) [SW 212834, 4-(3-amino-2-(butylsulfinyl)-6-(thiazol-2-yl)thieno[2,3-b]pyridin-4-yl)benzyl (2-(dimethylamino)ethyl)carbamate], for which the IC50 came out at 3.3 nM. As for `C=CCNC(=O)COc1ccc(-c2cc(-c3nccs3)nc3sc([S+]([O-])CCCC)c(N)c23)cc1` (stereo not drawn) [SW 212835, N-allyl-2-(4-(3-amino-2-(butylsulfinyl)-6-(thiazol-2-yl)thieno[2,3-b]pyridin-4-yl)phenoxy)acetamide], the IC50 came to 4.2 nM. Still for that read-out and setting: next, `CCCC[S+]([O-])c1sc2nc(-c3nccs3)cc(-c3ccc(CC(=O)OC)cc3)c2c1N` (stereo not drawn) [SW 213150, Methyl 2-(4-(3-amino-2-(butylsulfinyl)-6-(thiazol-2-yl)thieno[2,3-b]pyridin-4-yl)phenyl)acetate]: 4 nM; `CCCC[S+]([O-])c1sc2nc(-c3nccs3)cc(-c3ccc(COCCO)cc3)c2c1N` (stereo not drawn) [SW 213153, 2-((4-(3-amino-2-(butylsulfinyl)-6-(thiazol-2-yl)thieno[2,3-b]pyridin-4-yl)benzyl)oxy)ethan-1-ol]: 2 nM. On the same count and under the same terms, next, `CCCC[S+]([O-])c1sc2nc(-c3nccs3)cc(-c3cnc(OC)n3C)c2c1N` (stereo not drawn) [SW 213155, 2-(butylsulfinyl)-4-(2-methoxy-1-methyl-1H-imidazol-5-yl)-6-(thiazol-2-yl)thieno[2,3-b]pyridin-3-amine]: 19 nM; `CCCC[S+]([O-])c1sc2nc(-c3ncc(C)s3)cc(-c3cnc(C)n3C)c2c1N` (stereo not drawn) [SW 213208, 2-(butylsulfinyl)-4-(1,2-dimethyl-1H-imidazol-5-yl)-6-(5-methylthiazol-2-yl)thieno[2,3-b]pyridin-3-amine]: 7.5 nM. Regarding `CCCC[S+]([O-])c1sc2nc(-c3nccs3)cc(-c3ccc(CNC(=O)NCCO)cc3)c2c1N` (stereo not drawn) [SW 213209, 1-(4-(3-amino-2-(butylsulfinyl)-6-(thiazol-2-yl)thieno[2,3-b]pyridin-4-yl)benzyl)-3-(2-hydroxyethyl)urea], the IC50 was 2.8 nM. The same measure, in the same setting: the same measure for `CCCC[S+]([O-])c1sc2nc(-c3nccs3)cc(-c3ccc(CNC(=O)CN(C)C)cc3)c2c1N` (stereo not drawn) [SW 213210, N-(4-(3-amino-2-(butylsulfinyl)-6-(thiazol-2-yl)thieno[2,3-b]pyridin-4-yl)benzyl)-2-(dimethylamino)acetamide]: 5 nM.

Consider `CCCC[S+]([O-])c1sc2nc(-c3nccs3)cc(-c3ccc(CNC(=O)COC)cc3)c2c1N` (stereo not drawn) [SW 213211, N-(4-(3-amino-2-(butylsulfinyl)-6-(thiazol-2-yl)thieno[2,3-b]pyridin-4-yl)benzyl)-2-methoxyacetamide], for which the IC50 amounted to 2.9 nM.

Turning to `CCCC[S+]([O-])c1sc2nc(-c3nccs3)cc(-c3ccnn3C)c2c1N` (stereo not drawn) [SW 217780, 2-(butylsulfinyl)-4-(1-methyl-1H-pyrazol-5-yl)-6-(thiazol-2-yl)thieno[2,3-b]pyridin-3-amine], the half-inhibitory concentration (IC50) came to 3.1 nM. Still for that read-out and setting: the same measure for `CCCC[S+]([O-])c1sc2nc(-c3nccs3)cc(-c3cnnn3C)c2c1N` (stereo not drawn) [SW 217782, 2-(butylsulfinyl)-4-(1-methyl-1H-1,2,3-triazol-5-yl)-6-(thiazol-2-yl)thieno[2,3-b]pyridin-3-amine]: 5.4 nM; for `CCCC[S+]([O-])c1sc2nc(-c3nccs3)cc(-c3cocn3)c2c1N` (stereo not drawn) [SW 217936, 2-(butylsulfinyl)-4-(oxazol-4-yl)-6-(thiazol-2-yl)thieno[2,3-b]pyridin-3-amine]: 2.2 nM. Regarding `CCCC[S+]([O-])c1sc2nc(-c3nccs3)cc(-c3nc(C)cs3)c2c1N` (stereo not drawn) [SW 217937, 2-(butylsulfinyl)-4-(4-methylthiazol-2-yl)-6-(thiazol-2-yl)thieno[2,3-b]pyridin-3-amine], the IC50 came out at 1.8 nM. Same read-out and setting: the same measure for `CCCC[S+]([O-])c1sc2nc(-c3nccs3)cc(-c3scnc3C)c2c1N` (stereo not drawn) [SW 217938, 2-(butylsulfinyl)-4-(4-methylthiazol-5-yl)-6-(thiazol-2-yl)thieno[2,3-b]pyridin-3-amine]: 2.1 nM.

Regarding `CCCC[S+]([O-])c1sc2nc(-c3nccs3)cc(-c3ocnc3C)c2c1N` (stereo not drawn) [SW 217939, 2-(butylsulfinyl)-4-(4-methyloxazol-5-yl)-6-(thiazol-2-yl)thieno[2,3-b]pyridin-3-amine], the IC50 was determined as 4.5 nM. Still for that read-out and setting: next, `COCCC[S+]([O-])c1sc2nc(-c3nccs3)nc(-c3ccccc3)c2c1N` (stereo not drawn) [SW 217995, 6-((3-methoxypropyl)sulfinyl)-4-phenyl-2-(thiazol-2-yl)thieno[2,3-d]pyrimidin-5-amine]: 3 nM; `COCC[S+]([O-])c1sc2nc(-c3nccs3)nc(-c3ccccc3)c2c1N` (stereo not drawn) [SW 217996, 6-((2-methoxyethyl)sulfinyl)-4-phenyl-2-(thiazol-2-yl)thieno[2,3-d]pyrimidin-5-amine]: 3.4 nM; `Nc1c([S+]([O-])c2ccccc2)sc2nc(-c3nccs3)cc(-c3ccc(OCCO)cc3)c12` (stereo not drawn) [SW 217997, 2-(4-(3-amino-2-(phenylsulfinyl)-6-(thiazol-2-yl)thieno[2,3-b]pyridin-4-yl)phenoxy)ethan-1-ol]: 12 nM. Still for that read-out and setting: the same measure for `CCCC[S+]([O-])c1sc2nc(-c3nccs3)cc(-c3ccc(OCCF)cc3)c2c1N` (stereo not drawn) [SW 217998, 2-(butylsulfinyl)-4-(4-(2-fluoroethoxy)phenyl)-6-(thiazol-2-yl)thieno[2,3-b]pyridin-3-amine]: 3.2 nM.

In the case of `CCCC[S+]([O-])c1sc2nc(-c3cccs3)cc(-c3ccccc3)c2c1NC(C)=O` (stereo not drawn) [SW 218030, N-(2-(butylsulfinyl)-4-phenyl-6-(thiophen-2-yl)thieno[2,3-b]pyridin-3-yl)acetamide], the IC50 is 6890 nM. Turning to `CCCC[S+]([O-])c1sc2nc(-c3cccs3)cc(-c3ccccc3)c2c1NC(=O)OC` (stereo not drawn) [SW 218031, methyl (2-(butylsulfinyl)-4-phenyl-6-(thiophen-2-yl)thieno[2,3-b]pyridin-3-yl)carbamate], the IC50 stood at 1380 nM. In the case of `Nc1c(C(=O)N2CCCCC2)sc2nc(-c3cccs3)cc(-c3ccccc3)c12` [SW 218331, (3-amino-4-phenyl-6-(thiophen-2-yl)thieno[2,3-b]pyridin-2-yl)(piperidin-1-yl)methanone], the IC50 was 41 nM.

As to `CCCNS(=O)(=O)c1sc2nc(-c3cccs3)cc(-c3ccccc3)c2c1N` [SW 218332, 3-amino-4-phenyl-N-propyl-6-(thiophen-2-yl)thieno[2,3-b]pyridine-2-sulfonamide], the IC50 was determined as 113 nM. On to `CCOC[S+]([O-])c1sc2nc(-c3nccs3)cc(-c3cnc(C)n3C)c2c1N` (stereo not drawn) [SW 218398, 4-(1,2-dimethyl-1H-imidazol-5-yl)-2-((ethoxymethyl)sulfinyl)-6-(thiazol-2-yl)thieno[2,3-b]pyridin-3-amine], for which the 50% inhibitory concentration (IC50) is 9.1 nM.

The same experiment, now with this note: read-out: Enzyme Inhibitor IC50 (nM) at 5 nM 15-PGDH; recombinant human 15-PGDH at 5 nM, in vitro.
As to `CCCC[S@@+]([O-])c1sc2nc(-c3nccs3)cc(-c3cncn3C)c2c1N` (single isomer, unassigned) [(+)-SW 217985], the IC50 amounted to 0.9 nM. The same measure, in the same setting: next, `CCCC[S@+]([O-])c1sc2nc(-c3nccs3)cc(-c3cncn3C)c2c1N` (single isomer, unassigned) [(−)-SW 217986]: 765 nM.
